Tests used:
[1] = tested on: Caki-1; test: Cytotoxicity of Auristatin-Peptide-h1F6 conjugates, resazurin assay; assay type: cell-based
Text: (§1) The conjugates contain approximately 4 drugs per antibody.

[2] = tested on: L428; test: as above; assay type: cell-based
Text: as §1

[3] = tested on: HCT-116 (CD70−); test: Cytotoxicity of Auristatin-Peptide-h1F6 conjugates, CD70- control cell line; assay type: cell-based; settings: Table 5, ~4 drugs/Ab
Text: as §1

[4] = tested on: Caki-2; test: Cytotoxicity of Auristatin-Peptide-h1F6 conjugates, resazurin assay; assay type: cell-based
Method: as §1
Following the procedure described as Examples 57 and 58, Auristatin-Peptide-h1F6 conjugates were evaluated on CD70^+ cell, such as 786-O, Caki-1, Caki-2, and L428. Conjugates contain approximately 4 drugs per antibody.

[5] = tested on: 786-O; test: as above; assay type: cell-based, human
Text: as §1

[6] = tested on: UMRC-3; test: as above; assay type: cell-based
Text: as §1

[7] = tested on: LP-1; test: as above; assay type: cell-based, human
Text: as §1

[8] = Table 5, h1F6 conjugates, ~4 drugs/Ab
[9] = Table 7, h1F6 conjugates, AF vs MMAF
[10] = Table 10, h1F6-Drug(4) conjugates, aryl or alkyl maleimides
[11] = Table 9, h1F6-Drug(4) conjugates, mono- vs dipeptide linker
[12] = Table 8, h1F6 conjugates, D vs L amino acid in second linker position

| Substance | IC50 Caki-1 [1, 8] | IC50 L428 [2, 8] | IC50 HCT-116 (CD70−) [3] | IC50 Caki-2 [4, 8] | IC50 786-O [5, 8] | further results |
| --- | --- | --- | --- | --- | --- | --- |
| AF-Methionine-(D)Valine-diaminoethane-propionyl maleimide [AF-Met-(D)Val] | 0.006 µg/mL | 0.008 µg/mL | >1 µg/mL | 0.032 µg/mL | 0.005 µg/mL |  |
| AM-Methionine-(D)Lysine-diaminoethane-propionyl maleimide [AM-Met-(D)Lys] | 0.039 µg/mL | 1 µg/mL | >1 µg/mL | 0.251 µg/mL | 0.056 µg/mL |  |
| AW-Asparagine-(D)Lysine-diaminoethane-propionyl maleimide [AW-Asn-(D)Lys] | 0.015 µg/mL | 0.019 µg/mL | >1 µg/mL | 0.026 µg/mL | 0.016 µg/mL |  |
| AF-Asparagine-Proline-diaminoethane-propionyl maleimide [AF-Asn-Pro] | 0.012 µg/mL | 0.023 µg/mL | >1 µg/mL | 0.032 µg/mL | 0.011 µg/mL |  |
| AF-Asparagine-(D)Aspartic Acid-diaminoethane-propionyl maleimide [AF-Asn-(D)Asp] | 0.007 µg/mL | 0.014 µg/mL | >1 µg/mL | 0.071 µg/mL | 0.007 µg/mL |  |
| AF-Tyrosine-(D)Lysine-diaminoethane-propionyl maleimide [AF-Tyr-(D)Lys] | 0.011 µg/mL | 0.01 µg/mL | >1 µg/mL | 0.012 µg/mL | 0.009 µg/mL |  |
| MMAF-Methionine-(D)Lysine-diaminoethane-propionyl maleimide [MMAF-Met-(D)Lys] |  |  |  |  |  | IC50 Caki-1 [1, 9]: 0.008 µg/mL; IC50 UMRC-3 [6, 9]: 0.1 µg/mL; IC50 L-428 [2, 9]: 0.123 µg/mL; IC50 LP-1 [7, 9]: >1 µg/mL; IC50 786-O [5, 9]: 0.01 µg/mL |
| AM-Asparagine-(D)Lysine-diaminoethane-benzoyl maleimide [AM-Asn-(D)Lys-aryl maleimide] |  |  |  |  |  | IC50 Caki-1 [1, 10]: 0.01 µg/mL; IC50 L428 [2, 10]: 0.023 µg/mL; IC50 Caki-2 [4, 10]: 0.017 µg/mL; IC50 786-O [5, 10]: 0.016 µg/mL |
| AF-Glutamine-(D)Lysine-diaminoethane-propionyl maleimide [AF-Gln-(D)Lys] | 0.011 µg/mL | 0.209 µg/mL | >1 µg/mL | 0.014 µg/mL | 0.012 µg/mL |  |
| AW-Asparagine-diaminoethane-propionyl maleimide [AW-Asn] | 0.015 µg/mL | 0.022 µg/mL | >1 µg/mL | 0.03 µg/mL | 0.018 µg/mL |  |
| AF-Citrulline-(D)Lysine-diaminoethane-propionyl maleimide [AF-Cit-(D)Lys] | 0.011 µg/mL | 0.047 µg/mL | >1 µg/mL | 0.016 µg/mL | 0.01 µg/mL |  |
| AW-Tyrosine-(D)Aspartic acid-diaminoethane-propionyl maleimide [AW-Tyr-(D)Asp] | 0.016 µg/mL | 0.021 µg/mL | >1 µg/mL | 0.033 µg/mL | 0.018 µg/mL |  |
| AF-Methionine-(D)Aspartic Acid-diaminoethane-propionyl maleimide [AF-Met-(D)Asp] | 0.01 µg/mL | 0.011 µg/mL | >1 µg/mL | 0.035 µg/mL | 0.008 µg/mL |  |
| AF-Arginine-(D)Lysine-diaminoethane-propionyl maleimide [AF-Arg-(D)Lys] | 0.01 µg/mL | 0.047 µg/mL | >1 µg/mL | 0.008 µg/mL | 0.008 µg/mL |  |
| AF-Methionine-diaminoethane-propionyl maleimide |  |  |  |  |  | IC50 Caki-1 [1, 11]: 0.006 µg/mL; IC50 UMRC-3 [6, 11]: 0.017 µg/mL; IC50 L-428 [2, 11]: 0.003 µg/mL; IC50 LP-1 [7, 11]: 0.11 µg/mL; IC50 786-O [5, 11]: 0.008 µg/mL |
| AF-Homo-β-Phenylalanine-(D)Aspartic Acid-diaminoethane-propionyl maleimide [AF-hPhe-(D)Asp] | >1 µg/mL | 0.029 µg/mL | >1 µg/mL | >1 µg/mL | 0.01 µg/mL |  |
| AF-Methionine-(D)Lysine-(D)Lysine-diaminoethane-propionyl maleimide [AF-Met-(D)Lys-(D)Lys] | 0.012 µg/mL | >1 µg/mL | >1 µg/mL | 0.025 µg/mL | 0.008 µg/mL |  |
| AM-Asparagine-diaminoethane-propionyl maleimide [AM-Asn] | 0.031 µg/mL | 0.032 µg/mL | >1 µg/mL | 0.063 µg/mL | 0.03 µg/mL |  |
| AF-Asparagine-(L)Lysine-diaminoethane-propionyl maleimide [AF-Asn-(L)Lys] |  |  |  |  |  | IC50 Caki-1 [1, 12]: 0.008 µg/mL; IC50 UMRC-3 [6, 12]: 0.026 µg/mL; IC50 L-428 [2, 12]: 0.008 µg/mL; IC50 LP-1 [7, 12]: 0.501 µg/mL; IC50 786-O [5, 12]: 0.009 µg/mL |
| AF-Methionine-(D)Methionine-diaminoethane-propionyl maleimide [AF-Met-(D)Met] | 0.005 µg/mL | 0.004 µg/mL | >1 µg/mL | 0.013 µg/mL | 0.004 µg/mL |  |
| AF-Asparagine-(D)Lysine-(D)Lysine-diaminoethane-propionyl maleimide [AF-Asn-(D)Lys-(D)Lys] | 0.01 µg/mL | 0.022 µg/mL | >1 µg/mL | 0.03 µg/mL | 0.009 µg/mL |  |
| AF-Methionine-Proline-diaminoethane-propionyl maleimide [AF-Met-Pro] | 0.015 µg/mL | 0.008 µg/mL | >1 µg/mL | 0.025 µg/mL | 0.008 µg/mL |  |
| AW-Methionine-(D)Lysine-diaminoethane-benzoyl maleimide [AW-Met-(D)Lys-aryl-maleimide] |  |  |  |  |  | IC50 Caki-1 [1, 10]: 0.015 µg/mL; IC50 L428 [2, 10]: >1 µg/mL; IC50 Caki-2 [4, 10]: 0.012 µg/mL; IC50 786-O [5, 10]: 0.012 µg/mL |
| AF-Methionine-(L)Lysine-diaminoethane-propionyl maleimide [AF-Met-(L)Lys] |  |  |  |  |  | IC50 Caki-1 [1, 12]: 0.004 µg/mL; IC50 UMRC-3 [6, 12]: 0.022 µg/mL; IC50 L-428 [2, 12]: 0.003 µg/mL; IC50 LP-1 [7, 12]: 0.095 µg/mL; IC50 786-O [5, 12]: 0.007 µg/mL |
| AM-Tyrosine-(D)Aspartic Acid-diaminoethane-propionyl maleimide [AM-Tyr-(D)Asp] | 0.023 µg/mL | 0.03 µg/mL | >1 µg/mL | 0.071 µg/mL | 0.032 µg/mL |  |
| AF-Lysine-(D)Lysine-diaminoethane-propionyl maleimide [AF-Lys-(D)Lys] | 0.008 µg/mL | 0.037 µg/mL | >1 µg/mL | 0.009 µg/mL | 0.009 µg/mL |  |
